Laboratory results taken from patent US12378204B2, “Triazole compounds and preparation method therefor and use thereof” (WUHAN LL SCIENCE AND TECHNOLOGY DEVELOPMENT CO., LTD., priority 2019, dated 2025).
pIC50: −log10 of the molar value.

Assays:
[1] = system: A2058 (human melanoma cells); assay: A2058 cell scratch assay (cell migration inhibition); assay type: cell-based; conditions: A2058 scratch area 0 h vs 24 h, 10 μM LPA, read-out: Cell migration inhibition rate
Method: The activity of the compounds disclosed herein at the cell level in vitro is evaluated by A2058 (human melanoma cells, Beina Bio, BNCC341099) cell scratch assay. The inhibitory activity of the compounds against LPAR1 can be reflected by inhibition of cell scratch healing.
A2058 cells in a T75 cm^2 cell culture flask were digested and gently pipetted into single cells, adjusted to a cell density of 4×10^5 cells/mL, and then seeded into a 24-well plate. After the cell confluence reached 80%, the cell culture plate was taken out and the original medium was discarded. Serum-free medium was then added, and the cells were starved overnight in an incubator (37° C., 5% CO2). The cell culture plate was then taken out, and cell scratches were made along the diameter of the wells using a 200 μL pipette tip. The cell culture plate was then added with 500 μL of serum-free medium and then shaken gently to wash away the residual cells on the scratched surface, and this was repeated twice. The medium was discarded and 500 μL of 1% FBS medium containing the compound was then added, and the mixture was incubated at 37° C. for 30 min. […] Olympus CKX53 was used to observe the scratches, and MShot image analysis system was used to take pictures and measure the scratch area at 0 h. Then the cell culture plate was incubated in the incubator (37° C., 5% CO2). 24 h later, the scratches were observed again with Olympus CKX53, and MShot image analysis system was used to take pictures and measure the scratch area at 24 h. Cell migration inhibition rate was calculated according to the following formula: […]

[2] = In vitro cytotoxicity assay in HepG2 cells, CCK-8 method; assay type: cell-based; conditions: human, 48 h incubation
Method: In vitro cytotoxicity assay for the compounds disclosed herein was performed in HepG2 cells using the CCK-8 method. HepG2 cells (Beina Bio) in the logarithmic growth phase were collected, the concentration of cell suspension was adjusted, and then the cells were plated on a 96-well cell culture plate at 50,000 cells/well. • The cells were then incubated overnight in a cell incubator (5% CO2, 37° C.), and after 80-90% cell confluence was achieved, test compounds or vehicle (DMSO) at various concentration gradients were added after medium change. The resulting mixture was incubated in the cell incubator (5% CO2, 37° C.) for 48 h. After the treatment, the medium in the plate was discarded. The plate was washed twice with PBS, added with CCK-8 working solution (Beyotime) at 100 μL per well, and then incubated at 37° C. for 1.5 h in the dark. Absorbance at OD450nm was measured for each well on a microplate reader, and CC50 value of each compound was analyzed and calculated.

[3] = In vitro metabolic stability, rat liver microsomes; assay type: in vitro ADME; conditions: 1 mg/mL liver microsome protein, 37° C.
Method: (§1) The in vitro metabolic stability of the compounds disclosed herein was determined through incubation of liver microsomes of various species. A proper amount of test compound was added into a liver microsome reaction system (1 mg/mL liver microsome protein, 25 U/mL glucose-6 phosphate dehydrogenase, 1 mM NADP, 6 mM D-glucose 6-phosphate and 5 mM MgCl2), and then the mixture was incubated in a water bath kettle at 37° C. to start reaction. At each time point, 100 μL of the reaction system was added into a centrifuge tube containing 400 μL of internal standard working solution (containing a 200 ng/mL solution of dexamethasone, diclofenac, tolbutamide and labetalol in acetonitrile) precooled at 0° C. so as to stop the reaction, and the mixture was then centrifuged at 10,000 g for 10 min at 4° C. The supernatant was collected for LC-MS assay so as to obtain the values of in vitro metabolic half-life of the test compounds in liver microsomes of various species.

[4] = In vitro metabolic stability, human liver microsomes; assay type: in vitro ADME; conditions: 1 mg/mL liver microsome protein, 37° C.
Method: as §1

[5] = molecular target: T1, hLPAR1 (human lysophosphatidic acid receptor 1) (Homo sapiens, UniProt Q92633); assay: FLIPR intracellular calcium assay, hLPAR1 expressed in CHO-K1 cells; assay type: cell-based; conditions: antagonism of 1 μM LPA-induced calcium increase, CHO-K1 cells expressing hLPAR1; read-out: LPAR1 IC50
T1 construct: expressed in transfected cells
T1 sequence (Q92633 whole entry): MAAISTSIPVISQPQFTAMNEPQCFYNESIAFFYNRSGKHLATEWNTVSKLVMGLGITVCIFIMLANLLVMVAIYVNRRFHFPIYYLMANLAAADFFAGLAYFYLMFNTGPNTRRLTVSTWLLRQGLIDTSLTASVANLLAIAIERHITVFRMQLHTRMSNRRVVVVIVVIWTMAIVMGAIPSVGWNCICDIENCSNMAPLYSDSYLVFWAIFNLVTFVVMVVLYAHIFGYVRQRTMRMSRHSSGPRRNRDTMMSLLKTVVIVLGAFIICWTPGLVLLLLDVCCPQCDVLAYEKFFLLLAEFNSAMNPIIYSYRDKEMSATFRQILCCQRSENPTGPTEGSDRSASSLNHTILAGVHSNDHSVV
Method: The antagonist property of the compounds disclosed herein was determined using the FLIPR (fluorescence imaging plate reader) method, wherein the compounds are inhibitors for the intracellular calcium increase induced by activation of hLPAR1 (human lysophosphatidic acid receptor 1, accession No. NM_001401.4) expressed in CHO-K1 cells (Chinese hamster ovary cells K1, ATCC).
CHO-K1 cells stably expressing hLPAR1 were cultured in F-12 medium containing 10% FBS (fetal bovine serum, Gibco, 10099-141), 1% penicillin-streptomycin (Gibco, 15140-122) and 0.4 mg/mL hygromycin B (Gibco, 10687010) in a cell incubator (37° C., […]). During 18-24 h prior to the FLIPR experiment, cells at 250,000 cells/mL were seeded into a 96-well plate (25,000 cells/well) and incubated overnight in the cell incubator. On the day of the experiment, the medium was discarded and the cells were washed in a FLIPR buffer (0.3 mL of probenecid (Thermo, P36400), 0.6 mL of 1 M HEPES (Invitrogen, 15630080) and 29.1 mL of HBSS (Invitrogen, 14065056) per 30 mL of buffer). Each well was added with 75 μL of 1 mM Fluo-4 AM fluorescent dye (Thermo, F14202) and then the cells were subjected to dye-loading incubation at 37° C. for 1.0 h. The 96-well plate was then washed once with buffer, added with a buffer containing a test compound or vehicle at 50 μL per well and then incubated for 30 min at room temperature. The cell plate was then placed in the FLIPR for baseline fluorescence measurements (excitation at 485 nm and emission at 525-535 nm). An agonist (oleoyl-L-α-lysophosphatidic acid sodium salt (Sigma, L7260) at a final concentration of 1 μM) or a vehicle (ultrapure water) was then added at 50 μL/well, fluorescence values were measured for 2 min at 1-second intervals, and finally the output fluorescence counts were analyzed.

[6] = In vitro metabolic stability, mouse liver microsomes; assay type: in vitro ADME; conditions: 1 mg/mL liver microsome protein, 37° C.
Method: as §1

Row | SMILES | inhibition [1] | CC50 at 48 h [2] | half-life [3] | half-life [4] | pIC50 [5] | half-life [6]
1 | CN(Cc1ccccc1)C(=O)OCc1c(-c2ccc(Oc3cc(Cl)ccc3C(=O)O)cc2)nnn1C [Compound 7, 4-chloro-2-(4-(5-(((benzyl(methyl)carbamoyl)oxo)methyl)-1-methyl-1H-1,2,3-triazol-4-yl)phenoxy)benzoic acid] | 0 to 30% | > 200000 nM | < 30 min | > 30 min | 5.00 to 6.52 | > 30 min
2 | CN(C(=O)CCc1c(-c2ccc(O[C@H]3CCC[C@H](C(=O)O)C3)c(C(F)(F)F)n2)nnn1C)C1CCCC1 (racemic) [Compound 27-A, (+/−)-(1S,3S)-3-((6-(5-(3-(cyclopentyl(methyl)amino)-3-carbonylpropyl)-1-methyl-1H-1,2,3-triazol-4-yl)-2-(trifluoromethyl)pyridin-3-yl)oxo)cyclohexane-1-carboxylic acid] | 50 to 70% | > 200000 nM | 57 min | 232 min | ≥ 7.30 | 192 min
3 | Cn1nnc(-c2ccc(O[C@H]3CCC[C@H](C(=O)O)C3)cc2)c1COCc1ccccc1 (racemic) [Compound 23, (+/−)-(1S,3S)-3-(4-(5-((benzyloxy)methyl)-1-methyl-1H-1,2,3-triazol-4-yl)phenoxy)cyclohexane-1-carboxylic acid] | 30 to 50% | > 200000 nM | – | – | 6.52 to 7.30 | –
4 | Cn1nnc(-c2ccc(O[C@H]3CCC[C@H](C(=O)O)C3)cc2)c1C1CN(Cc2ccccc2)C(=O)O1 (stereo partly drawn) [Compound 9, (1S,3S)-3-(4-(5-(3-benzyl-2-carbonyloxazolidin-5-yl)-1-methyl-1H-1,2,3-triazol-4-yl)phenoxy)cyclohexane-1-carboxylic acid] | 30 to 50% | > 200000 nM | – | – | 6.52 to 7.30 | –
5 | CN(C(=O)OC1CCCC1)c1c(-c2ccc(O[C@H]3CCC[C@H](C(=O)O)C3)cc2)nnn1C (racemic) [Compound 31, (+/−)-(1S,3S)-3-(4-(5-(((cyclopentyloxy)carbonyl)(methyl)amino)-1-methyl-1H-1,2,3-triazol-4-yl)phenoxy)cyclohexane-1-carboxylic acid] | 30 to 50% | > 200000 nM | > 30 min | > 30 min | 6.52 to 7.30 | > 30 min
6 | CN(Cc1ccccc1)C(=O)OCc1c(-c2ccc(O[C@H]3CCC[C@H](C(=O)O)C3)o2)nnn1C (racemic) [Compound 12] | 0 to 30% | > 200000 nM | – | – | 5.00 to 6.52 | –
7 | CN(Cc1ccccc1)C(=O)OCc1c(-c2ccc(O/C=C/C(=O)O)cc2)nnn1C [Compound 10, (E)-3-(4-(5-(((benzyl(methyl)carbamoyl)oxo)methyl)-1-methyl-1H-1,2,3-triazol-4-yl)phenoxy)acrylic acid] | 30 to 50% | > 200000 nM | – | – | 6.52 to 7.30 | –
8 | CN(C(=O)NCc1c(-c2ccc(O[C@H]3CCC[C@H](C(=O)O)C3)c(F)c2)nnn1C)C1CCCC1 [Compound 25] | 30 to 50% | > 200000 nM | > 30 min | > 30 min | 6.52 to 7.30 | > 30 min
9 | CN(Cc1ccccc1)C(=O)/C=C/c1c(-c2ccc(O[C@H]3CCC[C@H](C(=O)O)C3)cc2)nnn1C (racemic) [Compound 2] | 0 to 30% | > 200000 nM | > 30 min | > 30 min | 6.52 to 7.30 | > 30 min
10 | CC(C)OCc1c(-c2ccc(O[C@H]3CCC[C@H](C(=O)O)C3)cc2)nnn1C (racemic) [Compound 22, (+/−)-(1S,3S)-3-(4-(5-(isopropoxymethyl)-1-methyl-1H-1,2,3-triazol-4-yl)phenoxy)cyclohexane-1-carboxylic acid] | 30 to 50% | > 200000 nM | – | – | 6.52 to 7.30 | –
11 | Cn1nnc(-c2ccc(O[C@H]3CCC[C@H](C(=O)O)C3)cc2)c1CNC(=O)/C=C/c1ccccc1 (racemic) [Compound 5] | 0 to 30% | > 200000 nM | – | – | 5.00 to 6.52 | –
12 | CN(C(=O)NCc1c(-c2ccc(O[C@H]3CCC[C@H](C(=O)O)C3)c(C(F)(F)F)n2)nnn1C)C1CCCC1 (racemic) [Compound 26, (+/−)-(1S,3S)-3-((6-(5-((3-cyclopentyl-3-methylureido)methyl)-1-methyl-1H-1,2,3-triazol-4-yl)-2-(trifluoromethyl)pyridin-3-yl)oxo)cyclohexane-1-carboxylic acid] | 30 to 50% | > 200000 nM | > 30 min | > 30 min | ≥ 7.30 | > 30 min
13 | CN(Cc1ccccc1)C(=O)NCc1c(-c2ccc(O[C@H]3CCC[C@H](C(=O)O)C3)cc2)nnn1C (racemic) [Compound 1] | 30 to 50% | > 200000 nM | – | – | 6.52 to 7.30 | –
14 | Cn1nnc(-c2ccc(O[C@H]3CCC[C@H](C(=O)O)C3)cc2)c1COC1CCCC1 (racemic) [Compound 21, (+/−)-(1S,3S)-3-(4-(5-((cyclopentyloxy)methyl)-1-methyl-1H-1,2,3-triazol-4-yl)phenoxy)cyclohexane-1-carboxylic acid] | 30 to 50% | > 200000 nM | – | – | 6.52 to 7.30 | –
15 | Cn1nnc(-c2ccc(O[C@H]3CCC[C@H](C(=O)O)C3)cc2)c1-c1cn(Cc2ccccc2)c(=O)o1 [Compound 8] | 0 to 30% | > 200000 nM | – | – | 6.52 to 7.30 | –
16 | CN(Cc1ccccc1)C(=O)CCc1c(-c2ccc(O[C@H]3CCC[C@H](C(=O)O)C3)cc2)nnn1C (racemic) [Compound 3] | 30 to 50% | > 200000 nM | > 30 min | > 30 min | 6.52 to 7.30 | > 30 min
17 | Cn1nnc(-c2ccc(O[C@H]3CCC[C@H](C(=O)O)C3)c(C(F)(F)F)n2)c1C1CN(C2CCCC2)C(=O)O1 (stereo partly drawn) [Compound 29] | 0 to 30% | > 200000 nM | – | – | 5.00 to 6.52 | –
